In ChEMBL document CHEMBL1138006, “Identification of 2,3-diaryl-pyrazolo[1,5-b]pyridazines as potent and selective cyclooxygenase-2 inhibitors” (Bioorg Med Chem Lett, 2004):

Target: T1, Prostaglandin G/H synthase 2 (Rattus norvegicus) (UniProt P35355)
T1 sequence (whole entry): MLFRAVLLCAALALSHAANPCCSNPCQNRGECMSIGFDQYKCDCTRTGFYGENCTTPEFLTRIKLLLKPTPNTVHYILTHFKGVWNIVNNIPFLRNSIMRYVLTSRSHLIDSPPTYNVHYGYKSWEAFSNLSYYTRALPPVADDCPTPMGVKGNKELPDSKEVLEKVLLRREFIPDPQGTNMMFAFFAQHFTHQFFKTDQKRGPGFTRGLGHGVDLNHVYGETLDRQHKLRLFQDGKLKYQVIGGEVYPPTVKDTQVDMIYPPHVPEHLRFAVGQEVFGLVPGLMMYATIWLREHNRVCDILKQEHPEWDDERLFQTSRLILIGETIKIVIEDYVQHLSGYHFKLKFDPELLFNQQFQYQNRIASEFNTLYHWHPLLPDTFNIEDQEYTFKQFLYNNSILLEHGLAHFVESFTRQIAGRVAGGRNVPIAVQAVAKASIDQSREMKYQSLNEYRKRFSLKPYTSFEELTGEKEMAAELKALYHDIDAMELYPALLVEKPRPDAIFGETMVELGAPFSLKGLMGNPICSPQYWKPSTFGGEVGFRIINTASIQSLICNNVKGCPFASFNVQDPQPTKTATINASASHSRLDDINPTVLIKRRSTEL
Experiment: Percent reversal of FCA-induced arthritis in rats at 10 mg/kg
Assay type: functional, organism-based
Set-up: dose 10 mg/kg
Conditions: not given
Work on `COc1ccc2c(-c3ccc(S(C)(=O)=O)cc3)c(-c3ccc(F)cc3)nn2n1` yielded a Reversal activity of 10%. `CCc1ccc2c(-c3ccc(S(C)(=O)=O)cc3)c(-c3ccc(F)cc3)nn2n1` showed a Reversal activity of 40%. `Cc1ccc2c(-c3ccc(S(C)(=O)=O)cc3)c(-c3ccccc3)nn2n1` gave a Reversal activity of 1%. For `NS(=O)(=O)c1ccc(-c2c(-c3ccc(F)cc3)nn3ncccc23)cc1`, the Reversal activity was 0%. With `CS(=O)(=O)c1ccc(-c2c(-c3cccc(F)c3)nn3ncccc23)cc1` the Reversal activity was 78%. With `NS(=O)(=O)c1ccc(-c2c(-c3ccc(OC(F)(F)F)cc3)nn3ncccc23)cc1` the Reversal activity was 92%. `CCOc1ccc(-c2nn3nc(S(C)(=O)=O)ccc3c2-c2ccc(S(N)(=O)=O)cc2)cc1` gave a Reversal activity of 0%. `CCOc1ccc2c(-c3ccc(S(C)(=O)=O)cc3)c(-c3ccc(F)cc3)nn2n1` showed a Reversal activity of 11%. Work on `Cc1ccc(-c2nn3ncccc3c2-c2ccc(S(C)(=O)=O)cc2)cc1` yielded a Reversal activity of 23%. `COc1ccc2c(-c3ccc(S(C)(=O)=O)cc3)c(-c3ccc(C)cc3)nn2n1` showed a Reversal activity of 15%.

Test system: not listed separately
Experiment: Distribution after iv administration of 2 mg/kg to rat
Assay type: ADME, organism-based
Set-up: dose 2 mg/kg, route intravenous
Conditions: in vivo, read-out: Distribution
Work on `CCOc1ccc(-c2nn3ncccc3c2-c2ccc(S(C)(=O)=O)cc2)cc1` [GW-406381] yielded a Vd of 3 L/kg.

Test system: not listed separately
Experiment: Half life after iv administration of 2 mg/kg to rat
Assay type: ADME, organism-based
Set-up: dose 2 mg/kg, route intravenous
Conditions: in vivo
`CCOc1ccc(-c2nn3ncccc3c2-c2ccc(S(C)(=O)=O)cc2)cc1` [GW-406381] gave a half-life of 4.1 h.

Test system: not listed separately
Experiment: Oral bioavailability after oral administration of 5 mg/kg to rat
Assay type: ADME, organism-based
Conditions: in vivo, read-out: Bioavailabiility
Compound `CCOc1ccc(-c2nn3ncccc3c2-c2ccc(S(C)(=O)=O)cc2)cc1` [GW-406381] has a bioavailability of 80%.

Target: T2, Prostaglandin G/H synthase 2 (Homo sapiens, UniProt P35354)
T2 sequence (P35354 whole entry): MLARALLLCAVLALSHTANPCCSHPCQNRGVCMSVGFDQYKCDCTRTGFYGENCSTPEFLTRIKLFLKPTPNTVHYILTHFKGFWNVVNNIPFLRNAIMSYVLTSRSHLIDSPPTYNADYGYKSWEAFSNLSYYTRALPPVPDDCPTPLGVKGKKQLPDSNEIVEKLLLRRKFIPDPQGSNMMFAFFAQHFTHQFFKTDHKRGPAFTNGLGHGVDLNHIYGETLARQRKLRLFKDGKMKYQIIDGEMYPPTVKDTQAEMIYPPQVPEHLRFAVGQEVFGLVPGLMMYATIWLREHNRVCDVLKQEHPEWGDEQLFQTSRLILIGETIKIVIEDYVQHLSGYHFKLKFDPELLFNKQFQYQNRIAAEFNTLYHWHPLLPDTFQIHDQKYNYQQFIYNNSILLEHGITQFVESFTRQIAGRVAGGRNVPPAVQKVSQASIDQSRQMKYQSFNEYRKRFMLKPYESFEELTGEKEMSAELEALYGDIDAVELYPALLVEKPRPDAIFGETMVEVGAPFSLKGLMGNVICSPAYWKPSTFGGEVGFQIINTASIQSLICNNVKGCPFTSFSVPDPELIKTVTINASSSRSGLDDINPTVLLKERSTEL
Assay type: cell-based, COS
Conditions: not given
Work on `CS(=O)(=O)c1ccc(-c2c(-c3ccc(F)cc3)nn3ncccc23)cc1` yielded an IC50 of 0.039 µM. Compound `COc1ccc2c(-c3ccc(S(C)(=O)=O)cc3)c(-c3ccc(F)cc3)nn2n1` has an IC50 of 0.051 µM. `COc1ccc2c(-c3ccc(S(N)(=O)=O)cc3)c(-c3ccc(F)cc3)nn2n1` showed an IC50 of 0.026 µM. `Cc1ccc2c(-c3ccc(S(C)(=O)=O)cc3)c(-c3ccc(F)cc3)nn2n1` showed an IC50 of 0.024 µM. For `CCOc1ccc(-c2nn3nc(SC)ccc3c2-c2ccc(S(N)(=O)=O)cc2)cc1`, the IC50 was 0.013 µM. Compound `CCc1ccc2c(-c3ccc(S(C)(=O)=O)cc3)c(-c3ccc(F)cc3)nn2n1` has an IC50 of 0.048 µM. In the case of `CC(C)Oc1ccc2c(-c3ccc(S(C)(=O)=O)cc3)c(-c3ccc(F)cc3)nn2n1`, the IC50 is reported as 0.057 µM. With `CS(=O)(=O)c1ccc(-c2c(-c3ccccc3)nn3ncccc23)cc1` the IC50 was 0.002 µM. With `Cc1ccc2c(-c3ccc(S(C)(=O)=O)cc3)c(-c3ccccc3)nn2n1` the IC50 was < 0.031 µM. In the case of `NS(=O)(=O)c1ccc(-c2c(-c3ccc(F)cc3)nn3ncccc23)cc1`, the IC50 is reported as < 0.01 µM. Compound `CS(=O)(=O)c1ccc(-c2c(-c3cccc(F)c3)nn3ncccc23)cc1` has an IC50 of 0.034 µM. For `NS(=O)(=O)c1ccc(-c2c(-c3ccc(OC(F)(F)F)cc3)nn3ncccc23)cc1`, the IC50 was 0.388 µM. Compound `CCOc1ccc(-c2nn3nc(S(C)(=O)=O)ccc3c2-c2ccc(S(N)(=O)=O)cc2)cc1` has an IC50 of 0.264 µM. Compound `CCOc1ccc2c(-c3ccc(S(C)(=O)=O)cc3)c(-c3ccc(F)cc3)nn2n1` has an IC50 of 0.043 µM. `Cc1ccc(-c2nn3ncccc3c2-c2ccc(S(C)(=O)=O)cc2)cc1` gave an IC50 of 0.017 µM. Work on `COc1ccc2c(-c3ccc(S(C)(=O)=O)cc3)c(-c3ccc(C)cc3)nn2n1` yielded an IC50 of 0.05 µM.

Target: Prostaglandin G/H synthase 1 (Homo sapiens, UniProt P23219)
Sequence (P23219 whole entry): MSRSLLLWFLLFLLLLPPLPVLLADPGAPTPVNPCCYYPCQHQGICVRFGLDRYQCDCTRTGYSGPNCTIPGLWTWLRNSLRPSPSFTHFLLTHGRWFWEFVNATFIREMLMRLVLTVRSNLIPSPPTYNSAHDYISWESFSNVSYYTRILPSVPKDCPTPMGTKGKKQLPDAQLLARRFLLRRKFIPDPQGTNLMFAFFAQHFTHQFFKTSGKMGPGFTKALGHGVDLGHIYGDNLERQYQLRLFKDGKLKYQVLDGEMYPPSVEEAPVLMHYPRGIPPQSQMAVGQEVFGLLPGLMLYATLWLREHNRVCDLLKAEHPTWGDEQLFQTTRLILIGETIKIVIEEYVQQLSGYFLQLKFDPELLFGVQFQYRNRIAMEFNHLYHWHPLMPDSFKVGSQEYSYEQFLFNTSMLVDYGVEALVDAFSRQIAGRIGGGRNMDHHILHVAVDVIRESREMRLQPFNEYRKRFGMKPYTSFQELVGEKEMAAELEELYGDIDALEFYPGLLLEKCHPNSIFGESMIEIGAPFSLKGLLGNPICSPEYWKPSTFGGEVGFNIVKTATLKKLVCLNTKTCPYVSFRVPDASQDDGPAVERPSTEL
Assay type: cell-based, COS
Conditions: not given
In the case of `CS(=O)(=O)c1ccc(-c2c(-c3ccc(F)cc3)nn3ncccc23)cc1`, the IC50 is reported as > 100 µM. For `COc1ccc2c(-c3ccc(S(C)(=O)=O)cc3)c(-c3ccc(F)cc3)nn2n1`, the IC50 was > 35.1 µM. Compound `COc1ccc2c(-c3ccc(S(N)(=O)=O)cc3)c(-c3ccc(F)cc3)nn2n1` has an IC50 of 2.61 µM. For `Cc1ccc2c(-c3ccc(S(C)(=O)=O)cc3)c(-c3ccc(F)cc3)nn2n1`, the IC50 was > 100 µM. Work on `CCOc1ccc(-c2nn3nc(SC)ccc3c2-c2ccc(S(N)(=O)=O)cc2)cc1` yielded an IC50 of 8.63 µM. With `CCOc1ccc(-c2nn3ncccc3c2-c2ccc(S(C)(=O)=O)cc2)cc1` [GW-406381] the IC50 was > 84.2 µM. For `CCc1ccc2c(-c3ccc(S(C)(=O)=O)cc3)c(-c3ccc(F)cc3)nn2n1`, the IC50 was > 100 µM. For `CC(C)Oc1ccc2c(-c3ccc(S(C)(=O)=O)cc3)c(-c3ccc(F)cc3)nn2n1`, the IC50 was > 100 µM. For `CS(=O)(=O)c1ccc(-c2c(-c3ccccc3)nn3ncccc23)cc1`, the IC50 was > 100 µM. Compound `Cc1ccc2c(-c3ccc(S(C)(=O)=O)cc3)c(-c3ccccc3)nn2n1` has an IC50 of 43.9 µM. With `Cc1ccc(-c2ncc(Cl)cc2-c2ccc(S(C)(=O)=O)cc2)cn1` [ETORICOXIB] the IC50 was > 100 µM. Compound `NS(=O)(=O)c1ccc(-c2c(-c3ccc(F)cc3)nn3ncccc23)cc1` has an IC50 of 24.1 µM. Work on `CS(=O)(=O)c1ccc(-c2c(-c3cccc(F)c3)nn3ncccc23)cc1` yielded an IC50 of 58.3 µM. For `NS(=O)(=O)c1ccc(-c2c(-c3ccc(OC(F)(F)F)cc3)nn3ncccc23)cc1`, the IC50 was > 100 µM. With `CCOc1ccc(-c2nn3nc(S(C)(=O)=O)ccc3c2-c2ccc(S(N)(=O)=O)cc2)cc1` the IC50 was > 100 µM. In the case of `CCOc1ccc2c(-c3ccc(S(C)(=O)=O)cc3)c(-c3ccc(F)cc3)nn2n1`, the IC50 is reported as > 100 µM. For `Cc1ccc(-c2nn3ncccc3c2-c2ccc(S(C)(=O)=O)cc2)cc1`, the IC50 was > 19.1 µM. With `COc1ccc2c(-c3ccc(S(C)(=O)=O)cc3)c(-c3ccc(C)cc3)nn2n1` the IC50 was > 100 µM.

Test system: not listed separately
Experiment: Clearance after iv administration of 2 mg/kg to rat
Assay type: ADME, organism-based
Set-up: dose 2 mg/kg, route intravenous
Conditions: in vivo
`CCOc1ccc(-c2nn3ncccc3c2-c2ccc(S(C)(=O)=O)cc2)cc1` [GW-406381] showed a clearance of 0.54 L/h/kg.
